Legend:
Assay in all cases: relative viability (nuclei count vs DMSO), 5 days (fraction); higher = more cells survive
[1] = compound: N#CC[C@H](C1CCCC1)n1cc(-c2ncnc3[nH]ccc23)cn1 [Ruxolitinib] + CS(=O)(=O)CCNCc1ccc(-c2ccc3ncnc(Nc4ccc(OCc5cccc(F)c5)c(Cl)c4)c3c2)o1 [Lapatinib] (partner 2 µM)
Outline: (§1)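 Relative viability was taken as the ratio of nuclei in treated wells to nuclei in vehicle wells. Lung cancer cell lines in 1536-well plates received compounds by pin tool one day after seeding, either one drug alone or a fixed anchor-drug dose plus five library-drug doses (not always all listed) in √10 steps. Nuclei were counted on 4× images after 5 days of treatment, and values are medians of duplicate plates.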

[2] = compound: CS(=O)(=O)c1ccc(-c2cnc(N)c(C(=O)Nc3ccccc3)n2)cc1 [VE-821] + Nc1nc2[nH]cc(CCc3ccc(C(=O)N[C@@H](CCC(=O)O)C(=O)O)cc3)c2c(=O)[nH]1 [Pemetrexed] (partner 0.2 µM)
Outline: as §1

[3] = compound: CS(=O)(=O)c1ccc(C(=O)Nc2ccc(Cl)c(-c3ccccn3)c2)c(Cl)c1 [Vismodegib] + C[C@]1(O)C[C@@H](c2nc(-c3ccc4ccc(-c5ccccc5)nc4c3)c3c(N)nccn32)C1 [Linsitinib] (partner 1 µM)
Outline: as §1

[4] = compound: CS(=O)(=O)c1ccc(-c2cnc(N)c(C(=O)Nc3ccccc3)n2)cc1 [VE-821] + Cc1nc(Nc2ncc(C(=O)Nc3c(C)cccc3Cl)s2)cc(N2CCN(CCO)CC2)n1 [Dasatinib] (partner 0.075 µM)
Outline: as §1

UMC-11
relative viability ([1]; first compound 0.08 µM): 1.01
relative viability ([1]; first compound 0.253 µM): 0.934
relative viability ([1]; first compound 0.8 µM): 1.23
relative viability ([1]; first compound 2.53 µM): 0.998
relative viability ([1]; first compound 8 µM): 1.02
relative viability ([2]; first compound 0.08 µM): 0.818
relative viability ([2]; first compound 0.253 µM): 0.718
relative viability ([2]; first compound 0.8 µM): 0.728
relative viability ([2]; first compound 2.53 µM): 0.513
relative viability ([2]; first compound 8 µM): 0.266
relative viability ([3]; first compound 0.08 µM): 0.931
relative viability ([3]; first compound 0.253 µM): 0.996
relative viability ([3]; first compound 0.8 µM): 1.06
relative viability ([3]; first compound 2.53 µM): 0.927
relative viability ([3]; first compound 8 µM): 1
relative viability ([4]; first compound 0.08 µM): 0.553
relative viability ([4]; first compound 0.253 µM): 0.44
relative viability ([4]; first compound 0.8 µM): 0.516
relative viability ([4]; first compound 2.53 µM): 0.524
relative viability ([4]; first compound 8 µM): 0.374

Source: the supplement of paper PMC10307832
